Values of other authors in patent US11857510B2, “Methods and compositions for treating congenital diarrhea disorder” (NAPO PHARMACEUTICALS, INC., priority 2017, dated 2024).

Settings: human, in vivo

Substance: Crofelemer
- absorption from the GI tract: little or no absorption
- systemic bioavailability: virtually no systemic bioavailability
- tolerability: well tolerated
